These results are taken from publication PMC12067315 (European journal of medicinal chemistry, 2022).

Molecules are shown by their SMILES. Like-named read-outs stand apart in the source and are kept apart here.

For assay [1], the system named is α2C. As to conditions: read-out: α2C (nM), literature Kb; literature Kb values; cited from earlier work.
In the next assay the target is T1, α2C-AR (Homo sapiens, UniProt P18825).
T1 sequence (P18825 1-462): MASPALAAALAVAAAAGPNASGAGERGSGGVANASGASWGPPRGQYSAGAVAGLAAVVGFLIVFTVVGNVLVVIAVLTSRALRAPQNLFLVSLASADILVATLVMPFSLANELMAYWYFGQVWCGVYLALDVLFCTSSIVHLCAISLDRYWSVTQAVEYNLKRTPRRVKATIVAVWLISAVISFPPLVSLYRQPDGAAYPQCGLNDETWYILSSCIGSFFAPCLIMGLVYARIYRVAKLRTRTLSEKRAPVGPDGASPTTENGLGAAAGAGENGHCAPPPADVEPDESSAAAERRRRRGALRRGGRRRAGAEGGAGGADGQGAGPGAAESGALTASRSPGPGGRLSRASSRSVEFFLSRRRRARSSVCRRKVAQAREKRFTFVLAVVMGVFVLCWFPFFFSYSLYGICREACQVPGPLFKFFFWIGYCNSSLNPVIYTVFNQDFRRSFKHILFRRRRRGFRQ
The assay is classed as binding. As to conditions: for Subtype Selectivity (α2A/α2C): ratio between Ki for α2A vs. α2C.

The test system of assay [2] is α2A. The settings on record: read-out: α2A (nM), literature Kb; literature Kb values; cited from earlier work.
In the next assay the target is T2, α2A-AR (Homo sapiens, UniProt P08913).
T2 sequence (P08913 1-465): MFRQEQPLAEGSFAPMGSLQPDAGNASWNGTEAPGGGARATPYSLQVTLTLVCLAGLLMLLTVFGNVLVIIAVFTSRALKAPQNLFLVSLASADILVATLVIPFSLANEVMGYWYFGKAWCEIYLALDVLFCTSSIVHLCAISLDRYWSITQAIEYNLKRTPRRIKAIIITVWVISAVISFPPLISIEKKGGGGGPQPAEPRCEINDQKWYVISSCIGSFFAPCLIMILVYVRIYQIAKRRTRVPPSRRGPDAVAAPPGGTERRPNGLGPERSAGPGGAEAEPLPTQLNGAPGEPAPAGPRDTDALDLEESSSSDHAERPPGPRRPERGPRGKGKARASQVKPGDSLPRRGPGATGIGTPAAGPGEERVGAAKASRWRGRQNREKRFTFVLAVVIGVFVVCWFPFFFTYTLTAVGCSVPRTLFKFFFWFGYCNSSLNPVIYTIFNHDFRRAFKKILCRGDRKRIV
Format: binding.

Assay [3] deals with α2A. The settings on record: read-out: α2A (nM), literature Kd; literature Kd values; cited from earlier work.
Assay [4] addresses α2C. The settings on record: read-out: α2C (nM), literature Kd; literature Kd values; cited from earlier work.
Assay [5] has as its target α2A. As to conditions: read-out: α2A (nM), literature Ki; literature Ki values; cited from earlier work.
Assay [6] deals with α2C. As to conditions: read-out: α2C (nM), literature Ki; literature Ki values; cited from earlier work.

`COc1cccc(-n2nc(C)cc2N2CCN(C[C@H]3COc4ccccc4O3)CC2)n1` [Compound 4, (S)-1-((2,3-dihydrobenzo[b][1,4]dioxin-2-yl)methyl)-4-(1-(6-methoxypyridin-2-yl)-3-methyl-1H-pyrazol-5-yl)piperazine]: the Kb with α2C [1] was 0.29 nM; in the assay with α2A [2] it was 82 nM. For the same compound, the Ki on α2C-AR is 0.4 ± 0.07 nM; at α2A-AR it was 2.77 ± 0.58 nM. Besides, on α2C-AR, the “Subtype Selectivity (α2A/α2C)” value amounted to 6.93.

As to `COc1ccccc1C1=CC(=O)N([C@H]2CCCN(C[C@H]3COc4ccccc4O3)C2)C1` [Compound 3, 1-((S)-1-(((S)-2,3-dihydrobenzo[b][1,4]dioxin-2-yl)methyl)piperidin-3-yl)-4-(2-methoxyphenyl)-1,5-dihydro-2H-pyrrol-2-one], the values for the Kb in the assay with α2C [1] and in the assay with α2A [2] were under 0.001 nM and over 449 nM, respectively. In addition, the “Subtype Selectivity (α2A/α2C)” value at α2C-AR is 751,000. The affinity on α2A-AR corresponds to a Ki of 458 ± 26 nM.

With `CCS(=O)(=O)N1CCC[C@@H]2CN3CCc4cc(OC)ccc4[C@@H]3C[C@@H]21` [RS79948, reference compound], the Kd on α2A [3] is 0.6 nM; on α2C [4] it was 0.77 nM. Also, on α2C-AR, the “Subtype Selectivity (α2A/α2C)” value was 0.55. Also, the Ki came out at 0.29 ± 0.08 nM at α2C-AR (read-out: α2C (Ki), HEK293 membranes, 1 nM [3H]RX821002, Ki ± standard deviation) and 0.16 ± 0.12 nM on α2A-AR (read-out: α2A (Ki), HEK293 membranes, 1 nM [3H]RX821002, Ki ± standard deviation).

`COCc1cccnc1N1CCN(C[C@H]2COc3ccccc3O2)CC1` [ORM-13070, (S)-1-((2,3-dihydrobenzo[b][1,4]dioxin-2-yl)methyl)-4-(3-(methoxymethyl)pyridin-2-yl)piperazine, reference compound]: the Ki at α2A [5] is 109 nM; on α2C-AR it was 0.25 ± 0.09 nM; at α2A-AR it was 2.8 ± 0.2 nM; at α2C [6], 3.8 nM. For the same compound, the “Subtype Selectivity (α2A/α2C)” value on α2C-AR was determined as 11.2.

Turning to `COCc1c(C)nn(C)c1N1CCN(C[C@H]2COc3ccccc3O2)CC1` [Compound 2, (S)-1-((2,3-dihydrobenzo[b][1,4]dioxin-2-yl)methyl)-4-(4-(methoxymethyl)-1,3-dimethyl-1H-pyrazol-5-yl)-piperazine], the Kb in the assay on α2C [1] is 1.62 nM; in the assay on α2A [2], 306 nM. The Ki at α2C-AR amounted to 0.74 ± 0.1 nM; on α2A-AR, 12.3 ± 1.2 nM. Also, the “Subtype Selectivity (α2A/α2C)” value at α2C-AR was found to be 16.6.

With `COCc1scnc1N1CCN(C[C@H]2COc3ccccc3O2)CC1` [Compound 1, (S)-4-(4-((2,3-dihydrobenzo[b][1,4]dioxin-2-yl)methyl)piperazin-1-yl)-5-(methoxymethyl)thiazole], the Kb with α2C [1] is under 0.1 nM; in the assay on α2A [2], 88 nM. Also, the Ki at α2C-AR was found to be 0.25 ± 0.01 nM; at α2A-AR it was 1.06 ± 0.52 nM. The “Subtype Selectivity (α2A/α2C)” value at α2C-AR was determined as 4.24.

As usually defined, the Ki is a dissociation constant, usually derived from enzyme kinetics or from competition with a known ligand. Broadly, the Kd is a measure of binding affinity in units of concentration.
